Our source for the Ki values is patent US9006177B2 (Advinus Therapeutics Limited, priority 2010, dated 2015).

Structures are written as SMILES.

In this assay the target is T1, Human A2A adenosine receptor (Homo sapiens, UniProt P29274).
T1 construct: expressed in transfected cells
T1 sequence (P29274 whole entry): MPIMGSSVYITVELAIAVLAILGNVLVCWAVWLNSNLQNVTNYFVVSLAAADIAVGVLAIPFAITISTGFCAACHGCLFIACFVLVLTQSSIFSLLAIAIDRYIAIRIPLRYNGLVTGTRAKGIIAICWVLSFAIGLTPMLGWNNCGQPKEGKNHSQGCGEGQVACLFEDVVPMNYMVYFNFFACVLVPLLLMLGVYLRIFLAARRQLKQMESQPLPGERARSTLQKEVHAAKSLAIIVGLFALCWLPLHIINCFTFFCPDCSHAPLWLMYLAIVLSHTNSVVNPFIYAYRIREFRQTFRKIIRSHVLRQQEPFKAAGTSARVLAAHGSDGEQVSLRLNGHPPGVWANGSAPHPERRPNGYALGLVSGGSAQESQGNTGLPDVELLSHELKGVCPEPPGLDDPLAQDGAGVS
Briefly: Radioligand binding for A2A adenosine receptor ([3H]-ZM-241385 competition, HEK-A2A membranes). The note with it: HEK-293 membranes, 2 nM [3H]-ZM-241385, read-out: A2A Cell based Functional Ki*.
Source text: […]
A word on the Ki: it is the equilibrium dissociation constant of an inhibitor or competing ligand from its target. `Cc1cnc2c(c1)CN(CCn1c(=O)n(C)c3c1nc(N)n1nc(-c4ccco4)nc31)CC2` [Example A42, 5-Amino-8-(2-furyl)-1-methyl-3-[2-(3-methyl-7,8-dihydro-5H-1,6-naphthyridin-6-yl)ethyl]-[1,2,4]triazolo[5,1-f]purin-2-one]: the inhibition constant Ki lay within 0.1 to 10 nM.
Then `Cn1c(=O)n(CCN2CCN(C(=O)C3CC3)CC2)c2nc(N)n3nc(-c4ccco4)nc3c21` [Example A62, 5-Amino-3-[2-[4-(cyclopropanecarbonyl)piperazin-1-yl]ethyl]-8-(2-furyl)-1-methyl-[1,2,4]triazolo[5,1-f]purin-2-one], with 0.1 to 10 nM; and `COc1ccc(CCn2c(=O)n(C)c3c2nc(N)n2nc(-c4ccco4)nc32)cc1` [Example A57], with 0.1 to 10 nM; and `Cn1c(=O)n(CCN2CCN(CC3CC3)CC2)c2nc(N)n3nc(-c4ccco4)nc3c21` [Example A36, 5-Amino-3-[2-[4-(cyclopropylmethyl)piperazin-1-yl]ethyl]-8-(2-furyl)-1-methyl-[1,2,4]triazolo[5,1-f]purin-2-one], with 10 to 100 nM.
Then `CCn1c(=O)n(CCN2CCN(c3ccc(F)cc3F)CC2)c2nc(N)n3nc(-c4ccco4)nc3c21` [Example G2], with 10 to 100 nM; and `COCCOc1ccc(N2CCN(CCn3c(=O)n(C)c4c3nc(N)n3nc(-c5ccco5)nc43)CC2)cc1` [Example A1], with 0.1 to 10 nM.
Take `COc1ccc(N2CCN(CCn3c(=O)n(C)c4c3nc(N)n3nc(-c5ccco5)nc43)CC2)c(F)c1` [Example A9]: the Ki lay within 0.1 to 10 nM.
The value for `COCCOc1ccc(N2CCN(CCn3c(=O)n(C)c4c3nc(N)n3nc(-c5nccs5)nc43)CC2)cc1` [Example M1, 5-Amino-3-[2-[4-[4-(2-methoxyethoxy)phenyl]piperazin-1-yl]ethyl]-1-methyl-8-thiazol-2-yl-[1,2,4]triazolo[5,1-f]purin-2-one] was 0.1 to 10 nM; that for `Cc1ccc(N2CCN(CCn3c(=O)n(C)c4c3nc(N)n3nc(-c5ccco5)nc43)CC2)cc1` [Example A7, 5-Amino-8-(2-furyl)-1-methyl-3-[2-[4-(p-tolyl)piperazin-1-yl]ethyl]-[1,2,4]triazolo[5,1-f]purin-2-one] was 0.1 to 10 nM; that for `CCn1c(=O)n(CCn2cc(-c3ccc(F)cc3F)cn2)c2nc(N)n3nc(-c4ccco4)nc3c21` [Example D3] was 0.1 to 10 nM.
For the molecule `Nc1nc2c(c3nc(-c4ccco4)nn13)n(CC1CC1)c(=O)n2CCn1cc(C(=O)O)cn1` [Example E1, 1-[2-[5-Amino-1-(cyclopropylmethyl)-8-(2-furyl)-2-oxo-[1,2,4]triazolo[5,1-f]purin-3-yl]ethyl]pyrazole-4-carboxylic acid], the inhibition constant Ki was 0.1 to 10 nM.
Regarding `CCOc1ccc(N2CCN(CCn3c(=O)n(CC4CC4)c4c3nc(N)n3nc(-c5ccco5)nc43)CC2)cc1` [Example C1, 5-Amino-1-(cyclopropylmethyl)-3-[2-[4-(4-ethoxyphenyl)piperazin-1-yl]ethyl]-8-(2-furyl)-[1,2,4]triazolo[5,1-f]purin-2-one], the inhibitory constant (Ki) was in the range of 0.1 to 10 nM.
Then `Cn1c(=O)n(CCN2CCN(C(=O)CC3CC3)CC2)c2nc(N)n3nc(-c4ccco4)nc3c21` [Example A63, 5-Amino-3-[2-[4-(2-cyclopropylacetyl)piperazin-1-yl]ethyl]-8-(2-furyl)-1-methyl-[1,2,4]triazolo[5,1-f]purin-2-one], with 10 to 100 nM; and `Cn1c(=O)n(CCN2CCN(c3ccc(OC(F)F)cc3)CC2)c2nc(N)n3nc(-c4ccco4)nc3c21` [Example A58, 5-amino-3-[2-[4-[4-(difluoromethoxy)phenyl]piperazin-1-yl]ethyl]-8-(2-furyl)-1-methyl-[1,2,4]triazolo[5,1-f]purin-2-one], with 0.1 to 10 nM.
The value for `COCCOc1ccc(N2CCN(CCn3c(=O)n(C)c4c3nc(N)n3nc(-c5ccco5)nc43)CC2)c(F)c1` [Example A31] was 0.1 to 10 nM; that for `Cn1c(=O)n(CCN2CCN(c3ccc(OC4CCOC4)cc3)CC2)c2nc(N)n3nc(-c4ccco4)nc3c21` (stereo not drawn) [Example A39, 5-Amino-8-(2-furyl)-1-methyl-3-[2-[4-(4-tetrahydrofuran-3-yloxyphenyl)piperazin-1-yl]ethyl]-[1,2,4]triazolo[5,1-f]purin-2-one] was 0.1 to 10 nM.
`CN(C)S(=O)(=O)N1CCN(CCn2c(=O)n(C)c3c2nc(N)n2nc(-c4ccco4)nc32)CC1` [Example A38, 4-[2-[5-Amino-8-(2-furyl)-1-methyl-2-oxo-[1,2,4]triazolo[5,1-f]purin-3-yl]ethyl]-N,N-dimethyl-piperazine-1-sulfonamide]: the Ki fell in the range of 0.1 to 10 nM.
The value for `Nc1nc2c(c3nc(-c4ccco4)nn13)n(CC(F)(F)F)c(=O)n2CCN1CCN(c2ccc(F)cc2F)CC1` [Example H2, 5-Amino-3-{2-[4-(2,4-difluoro-phenyl)-piperazin-1-yl]-ethyl}-8-furan-2-yl-1-(2,2,2-trifluoro-ethyl)-1,3-dihydro-[1,2,4]triazolo[5,1-f]purin-2-one] was 0.1 to 10 nM; that for `Cn1c(=O)n(CCN2CCN(C(=O)CC3CC3)CC2)c2nc(N)n3nc(-c4nccs4)nc3c21` [Example M3, 5-Amino-3-[2-[4-(2-cyclopropylacetyl)piperazin-1-yl]ethyl]-1-methyl-8-thiazol-2-yl-[1,2,4]triazolo[5,1-f]purin-2-one] was 10 to 100 nM; that for `Cn1c(=O)n(CCN2CCN(c3ccc(C(C)(C)O)cc3)CC2)c2nc(N)n3nc(-c4ccco4)nc3c21` [Example A13] was 0.1 to 10 nM.
Then `Cc1cnc2c(c1)CN(CCn1c(=O)n(C)c3c1nc(N)n1nc(-c4nccs4)nc31)CC2` [Example M6, 5-Amino-1-methyl-3-[2-(3-methyl-7,8-dihydro-5H-1,6-naphthyridin-6-yl)ethyl]-8-thiazol-2-yl-[1,2,4]triazolo[5,1-f]purin-2-one], with 0.1 to 10 nM.
